From US7598028B2, “Compositions and methods for detecting and treating prostate disorders” (The Regents of the University of Michigan, priority 2006, dated 2009)

Columns and labels:
Assay type in all cases: cell-based, human
EGR1 gene transcript = assay: Quantitative real-time PCR, EGR1 in LNCaP cells
Method: Quantitative Real-Time PCR. All quantitative real-time assays were conducted with an Applied Biosystems 7900HT instrument and reagents. Cells were grown to 70% confluence in […] dishes prior to RNA purification using the Trizol reagent (Invitrogen Life Technologies). Experiments utilizing U0126 were performed as above, except that cells were treated with DMSO (vehicle) or 5 uM U0126 for 2 hours, then grown in the presence or absence of CXCL12. For all experiments, one microgram of RNA was reverse transcribed by use of Superscript III reverse transcriptase (Invitrogen, Carlsbad, Calif.). The resulting cDNA was diluted 1:100. Real-time PCR was performed by use of Assays on Demand (Applied BioSystems, Foster City, Calif.) according to the manufacturer's instructions, except that Real Time Ready with Rox passive dye (QBioGene, Carlsbad, Calif.) was used in place of TaqMan Universal PCR Master Mix. […] Cycle numbers to threshold were calculated by subtracting averaged control from averaged experimental values, and Fold Gene Expression was calculated by raising […]. […]
Quantitative Real-Time PCR. All quantitative real-time assays were conducted as previously described with an Applied Biosystems 7900HT instrument and reagents (see, e.g., Begley L A, et al., J Biol. Chem. 2007 Sep. 14; 282(37):26767-74; herein incorporated by reference in its entirety). […]

ERK ½ [1] = assay: Western blot, ERK phosphorylation in N15C6 cells
Method: Western blot analysis Cells were lysed, proteins resolved by electrophoresis and electroblotting was carried out as described previously (Chaib H, et al., (2001) Cancer Res. 61, 2390-2394; incorporated herein by reference in its entirety). Proteins were detected using antibodies against phospho-ERK½ (Cell Signaling no. 9101), total ERK½ (Cell Signaling, no. 9102), CXCR4 (Abcam no. ab2074), CXCR7 (Abcam #Ab12870, Abcam #Ab12871, Abcam #38089), phospho-p65 (Rockland no. 100-401-264), total p65 (Rockland no. 100-4165), or beta-actin (Santa Cruz no. sc-1615), in conjunction with an ECL detection system.
(§1) Western Blot Analysis. Cells were lysed, proteins resolved by electrophoresis, and electroblotting was carried out as described previously (see, e.g.; Chaib H, et al., 2001 Cancer Res. 61, 2390-2394; incorporated herein by reference in its entirety). Proteins were detected using antibodies against phospho-ERK½ (Cell Signaling #9101), total ERK½ (Cell Signaling #9102), CXCR4 (Abcam #ab2074), Elk-1 (Cell Signaling #9182), Phospho Elk-1 (Cell Signaling #9181), or beta-actin (Santa Cruz #sc-1615), in conjunction with an ECL detection system.
(§2) Western Blot and Protein Analysis. Cells were lysed, proteins resolved by electrophoresis, and electroblotting was carried out as described previously except that 20 ug protein was electrophoresed per gel lane for N15C6 cells and 100 ug protein for LNCaP cells (see, e.g., Begley L, et al., Aging Cell. 2005 December; 4(6):291-8; Begley L A, et al., J Biol. Chem. 2007 Sep. 14; 282(37):26767-74; each herein incorporated by reference in their entireties). Proteins were detected using antibodies against phospho-ERK½ (Cell Signaling #9101), total ERK½ (Cell Signaling, #9102), phospho-p65, (Rockland #100-401-264), total p65 (Rockland #100-4165), STAT3 (9139), phospho-STAT3 (9138), beta-actin (Santa Cruz #sc-1615), or tubulin (Upstate, #DM1A) in conjunction with an ECL detection system. Secondary antibodies included goat anti-rabbit (Cell Signaling, #7074) and goat anti-mouse (Santa Cruz, #SC-2005), and both were used at a 1:5000 concentration. Immunoblots shown are representative of triplicate experiments. Densitometric quantitation of immunoblot films was accomplished by scanning the original films and converting the .tiff files to grayscale. Images were inverted, and mean band intensities were measured using ImageJ (www, followed by, .nih.gov). The mean intensity of adjacent background was also measured for each band and subtracted from band intensity.

ERK ½ [2] = assay: Western blot, ERK phosphorylation in LNCaP cells
Method: as §1, §2

[3] = test system: BPH-1 prostate epithelial cells; assay: Proliferation assay, BPH-1; settings: 0.001-1 nM CXCL5, p<0.05
Method: Proliferation Assays. Cellular proliferation was assessed after plating cells at 50,000 cell/well in triplicate in six well plates and counting cells after 24 and 96 hours of incubation as described previously (see, e.g., Begley L, et al., Genes Chromosomes Cancer. 2006 February; 45(2): 136-46; herein incorporated by reference in its entirety). To assess the effects of exogenous CXCL5 on cellular proliferation, recombinant human CXCL5 (R&D Systems, 254-X) was added at the desired concentration in 2 ml SF media (or 2 ml SF media alone for control) to each well. The cells were re-fed at 24 hours growth and counted at 24 and 96 hours growth. Cell counts were normalized to 50,000 cells at 24 hours to account for any plating discrepancies. Averages and standard deviations of cell number were calculated for each time point under each media condition. For the antibody blockade experiments, 10,000 cells per well were plated in triplicate in 24 well dishes and preincubated with mouse anti-human CXCR2 (Biosource AHR1532X) or mouse antihuman CXCR4 (BD Pharmingen 555971) at 1 ug/ml for 1 hour prior to CXCL5 addition. Cells were maintained in media containing appropriate antibodies for the entirety of the experiment and were counted at 24 and 96 hours as above.

Compound | effect on CXCL12-stimulated EGR1 gene transcription (EGR1 gene transcript; 5 uM U0126 for 2 hours, then 50 pM CXCL12) | effect on CXCL12-stimulated ERK ½ phosphorylation (ERK ½ [1]; 0.1 uM or 1.0 uM U0126, 1 pM CXCL12) | effect on CXCL12-stimulated ERK ½ phosphorylation (ERK ½ [1]; 1 uM U0126 pre-treatment, 10 pM or 1000 pM CXCL12) | effect on CXCL12-stimulated ERK phosphorylation (ERK ½ [1]; 1.0 uM or 5.0 uM U0126, 1 pM, 10 pM or 1000 pM CXCL12) | effect on CXCL12-stimulated ERK ½ phosphorylation (ERK ½ [1]; 5 uM U0126 pre-treatment, 10 pM or 1000 pM CXCL12) | EGR1 transcript versus vehicle-treated cells (EGR1 gene transcript; only at the lowest CXCL5 concentration (10 pM) tested) | ERK ½ phosphorylation (ERK ½ [2]; 10 pM or 100 pM CXCL5) | activation of ERK ½ (ERK ½ [2]; nanomolar levels of CXCL5) | proliferation versus SF media alone [3] | ERK ½ phosphorylation (ERK ½ [1]; 10 pM, 100 pM or 1 nM CXCL5)
N#CC(=C(/N)Sc1ccccc1N)/C(C#N)=C(\N)Sc1ccccc1N [U0126] | ablates | diminished | reduces | greatly diminishes | ablates |  |  |  |  | 
CXCL5: recombinant human CXCL5 (R&D Systems, 254-X), CXC-type chemokine |  |  |  |  |  | 2- to 3 fold | rapidly and transiently phosphorylated | not evident | significantly higher | rapidly and transiently phosphorylated
